Test results published in patent EP1561465A2, “Methods of use of fluoroquinolone compounds against bacteria” (LG Life Sciences, Ltd., priority 1999, dated 2001).
Converted amounts (≈) assume the structure as drawn. Like-named read-outs stand apart in the source and are kept apart here.

Legend:
Enterococcus faecalis = assay: MIC by agar macrodilution (NCCLS), 373 Gram positive isolates, Athens 1998; type: cell-based; conditions: for MIC50: read-out: MIC50
Campylobacter jejuni = assay: MIC by agar dilution (NCCLS M7-A4), 288 enteropathogenic isolates, gemifloxacin and 15 other antimicrobials; conditions: for MIC: Campylobacter jejuni
[1] = number of isolates at MIC […], n = 81
[2] = number of isolates with MIC […], 14 isolates

CC[C@H]1OC(=O)[C@H](C)[C@@H](O[C@H]2C[C@@](C)(OC)[C@@H](O)[C@H](C)O2)[C@H](C)[C@@H](O[C@@H]2O[C@H](C)C[C@H](N(C)C)[C@H]2O)[C@](C)(O)C[C@@H](C)C(=O)[C@H](C)[C@@H](O)[C@]1(C)O [erythromycin]
MIC50 (Enterococcus faecalis; Enterococcus faecalis, continuation of the preceding table (title not shown), 14 isolates): ≥ 32 µg/mL | MIC50 (Enterococcus faecalis; Enterococcus faecalis, n = 81 isolates): 8 µg/mL (≈ 10.9 µM) | MIC90 (Enterococcus faecalis; Enterococcus faecalis, n = 81 isolates, read-out: MIC90): ≥ 32 µg/mL | MIC90 (Enterococcus faecalis; continuation of the preceding table (title not shown), 14 isolates): ≥32 µg/mL | MIC distribution (µg/ml) 0.03 (Enterococcus faecalis; number of isolates at MIC 0.03 µg/ml, n = 81): 0 | MIC distribution (µg/ml) 0.06 (Enterococcus faecalis; number of isolates at MIC 0.06 µg/ml, n = 81): 0 | MIC distribution (µg/ml) 0.5 (Enterococcus faecalis; number of isolates at MIC 0.5 µg/ml, n = 81): 1 | MIC distribution (µg/ml) 1 (Enterococcus faecalis; number of isolates at MIC 1 µg/ml, n = 81): 2 | MIC distribution (µg/ml) 2 (Enterococcus faecalis; number of isolates at MIC 2 µg/ml, n = 81): 12 | MIC distribution (µg/ml) 4 (Enterococcus faecalis; number of isolates at MIC 4 µg/ml, n = 81): 16 | MIC distribution (µg/ml) 8 (Enterococcus faecalis; number of isolates at MIC 8 µg/ml, n = 81): 4 | MIC distribution (µg/ml) 16 (Enterococcus faecalis; number of isolates at MIC 16 µg/ml, n = 81): 1 | MIC distribution (µg/ml) 0.125 (Enterococcus faecalis; [1]): 1 | MIC distribution (µg/ml) 0.25 (Enterococcus faecalis; [1]): 1 | MIC distribution (µg/ml) ≤0.015 (Enterococcus faecalis; number of isolates at MIC ≤[…], n = 81): 0 | MIC distribution (µg/ml) ≥32 (Enterococcus faecalis; number of isolates at MIC ≥32 µg/ml, n = 81): 39 | MIC distribution (µg/ml) 0.03 (Enterococcus faecalis; number of isolates with MIC 0.03 µg/ml, 14 isolates): 0 | MIC distribution (µg/ml) 0.06 (Enterococcus faecalis; number of isolates with MIC 0.06 µg/ml, 14 isolates): 0 | MIC distribution (µg/ml) 0.5 (Enterococcus faecalis; number of isolates with MIC 0.5 µg/ml, 14 isolates): 0 | MIC distribution (µg/ml) 1 (Enterococcus faecalis; number of isolates with MIC 1 µg/ml, 14 isolates): 0 | MIC distribution (µg/ml) 2 (Enterococcus faecalis; number of isolates with MIC 2 µg/ml, 14 isolates): 2 | MIC distribution (µg/ml) 4 (Enterococcus faecalis; number of isolates with MIC 4 µg/ml, 14 isolates): 2 | MIC distribution (µg/ml) 8 (Enterococcus faecalis; number of isolates with MIC 8 µg/ml, 14 isolates): 1 | MIC distribution (µg/ml) 16 (Enterococcus faecalis; number of isolates with MIC […] µg/ml, 14 isolates): 0 | MIC distribution (µg/ml) 0.125 (Enterococcus faecalis; [2]): 0 | MIC distribution (µg/ml) 0.25 (Enterococcus faecalis; [2]): 0 | MIC distribution (µg/ml) ≤0.015 (Enterococcus faecalis; number of isolates with MIC ≤[…], 14 isolates): 0 | MIC distribution (µg/ml) ≥32 (Enterococcus faecalis; number of isolates with MIC ≥[…] µg/ml, 14 isolates): 9 | isolates inhibited by a concentration ≤0.5 mg/l (Campylobacter jejuni; C. jejuni): 77% | concentration inhibiting all the other isolates (Campylobacter jejuni; C. jejuni isolates other than the highly resistant strain): ≤ 4 mg/L | MIC (Campylobacter jejuni): 128 mg/L (≈ 174 µM) | MIC (Campylobacter jejuni; read-out: MIC (mg/L) 50%): 0.5 mg/L (≈ 0.681 µM) | MIC (Campylobacter jejuni; read-out: MIC (mg/L) 90%): 1 mg/L (≈ 1.36 µM)
